Legend:
human Edg-1 (S1P1) = target: T1, human Edg-1 (S1P1) (Homo sapiens, UniProt P21453); test: S1P1 binding assay: inhibition of [33P]-S1P binding to membrane fraction of HEK-293 cells transferred with the human Edg-1 (S1P1) gene; conditions: for IC50: [33P]-S1P 0.1 nM, human Edg-1 (S1P1) HEK-293 membrane fraction, 1 h at 30° C., read-out: IC50 (concentration at which binding in the absence of the test compound was inhibited by 50%)
T1 construct: expressed in transfected cells; host or cells: HEK-293
Summary of the method: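 Membranes from S1P1-transfected HEK-293 cells incubated 1 h at 30° C in pH 7.4 Tris buffer with fatty acid-free BSA, 0.1 nM [33P]-S1P and test compound (0.1% DMSO). Filter-bound radioactivity was counted; inhibition corrected for binding to untransfected-cell membranes, and IC50 derived from concentration series.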

[1] = test compound 10 μM, inhibition of [33P]-S1P binding, membrane fraction

T1 sequence (P21453 whole entry): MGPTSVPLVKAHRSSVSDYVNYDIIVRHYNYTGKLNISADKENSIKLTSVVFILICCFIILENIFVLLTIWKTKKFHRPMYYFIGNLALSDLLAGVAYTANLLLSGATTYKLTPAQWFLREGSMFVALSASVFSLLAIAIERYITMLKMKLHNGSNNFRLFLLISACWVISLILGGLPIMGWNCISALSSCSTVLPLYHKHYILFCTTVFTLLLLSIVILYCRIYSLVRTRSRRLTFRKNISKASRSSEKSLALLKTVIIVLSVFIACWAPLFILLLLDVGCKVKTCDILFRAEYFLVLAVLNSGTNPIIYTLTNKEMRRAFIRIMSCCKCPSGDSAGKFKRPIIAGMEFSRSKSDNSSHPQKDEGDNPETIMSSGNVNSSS

Row | melting point [°C] | IC50 (human Edg-1 (S1P1)) [nM] | inhibition at 10 µM (human Edg-1 (S1P1); [1]) [%] | Binding assay (membrane) % inhibition (10 μM) (human Edg-1 (S1P1); test compound 10 μM, inhibition of [33P]-S1P binding, membrane fraction, 10 µM) [%] | Structure (SMILES)
1 | 143.5 to 144.5 | ≤ 10 | 97.9 |  | CCn1c(Oc2cccc(N3CCN(C)CC3)c2)nnc1[C@@H](C)NS(=O)(=O)c1ccc2cccc(Cl)c2c1 [Compound 666]
2 | 207 to 208 | ≤ 10 | 99.2 |  | CCn1c(Oc2cccc(N3CCN(C)CC3)c2)nnc1[C@@H](C)NS(=O)(=O)c1ccc2c(Br)cccc2c1 [Compound 667]
3 | 131.5 to 132.5 | ≤ 10 | 100 |  | CCn1c(Oc2cccc(N3CCN(C(C)C)CC3)c2)nnc1[C@@H](C)NS(=O)(=O)c1ccc2cccc(Cl)c2c1 [Compound 669]
4 | 214.5 to 218 | 5.2 | 101 |  | CCn1c(Oc2ccc3cc[nH]c3c2)nnc1[C@@H](C)NS(=O)(=O)c1ccc2cccc(Cl)c2c1 [Compound 670]
5 | 169.5 to 170.5 | 1.4 | 100 |  | CCn1c(Oc2ccc(F)c(N3CCN(C)CC3)c2)nnc1[C@@H](C)NS(=O)(=O)c1ccc2c(Cl)cccc2c1 [Compound 680]
6 | 189 to 189.5 | ≤ 10 | 100 |  | CCn1c(Oc2ccc(F)c(N3CCN(C)CC3)c2)nnc1[C@@H](C)NS(=O)(=O)c1ccc(Cl)c(Cl)c1 [Compound 681]
7 | 228 to 228.5 |  | 76.6 |  | CCn1c(Oc2ccc(F)cc2)nnc1C(C)(C)NS(=O)(=O)c1ccc(Cl)c(Cl)c1 [Compound 682]
8 | 175 to 178 | ≤ 10 | 100 |  | CCn1c(Oc2cccc(N3CCNCC3)c2)nnc1[C@@H](C)NS(=O)(=O)c1ccc(Cl)c(Cl)c1 [Compound 683, 3,4-Dichloro-N-[(R)-1-[4-ethyl-5-(3-piperazin-1-yl-phenoxy)-4H-[1,2,4]triazol-3-yl]-ethyl]-benzenesulfonamide]
9 | 255 to 260 |  | 65.1 |  | CCn1c(Oc2ccc(F)cc2)nnc1C1(NS(=O)(=O)c2ccc(Cl)c(Cl)c2)CC1 [Compound 685]
10 | 220.5 to 221 |  | 92.7 |  | CCn1c(Oc2cccc(N3CCN(C)CC3)c2)nnc1C1(NS(=O)(=O)c2ccc(Cl)c(Cl)c2)CC1 [Compound 686]
11 | 192 to 193 | 1.5 | 100 |  | CCn1c(Oc2cccc(N3CCNCC3)c2)nnc1[C@@H](C)NS(=O)(=O)c1ccc2c(Cl)cccc2c1 [Compound 688]
12 | 198 to 200 | ≤ 10 | 102 |  | CCn1c(Oc2cccc(N3CCN(C)CC3)c2)nnc1[C@@H](C)NS(=O)(=O)c1ccc2c(I)cccc2c1 [Compound 690]
13 | 180 to 182 | 2.6 |  | 98.5 | CCn1c(Oc2cccc(N3CCN(C)CC3)c2)nnc1[C@@H](C)NS(=O)(=O)c1ccc2c(I)cccc2c1 [Compound 691]
14 | 227 to 229 | 5.1 | 98.5 |  | CCn1c(Oc2cccc(N3CCN(C)CC3)c2)nnc1[C@@H](C)NS(=O)(=O)c1ccc2c(C#N)cccc2c1 [Compound 692]
15 | 158 to 161 |  | 97.7 |  | CCn1c(Oc2cccc(N3CCN(C)CC3)c2)nnc1[C@@H](C)NS(=O)(=O)c1ccc2c(S(C)(=O)=O)cccc2c1 [Compound 693]
16 | 189 to 191 | 2.9 | 106 |  | CCn1c(Oc2cccc(N3CCN(C)CC3)c2)nnc1[C@@H](C)NS(=O)(=O)c1ccc2c(Cl)ccc(Cl)c2c1 [Compound 694]
